In patent US9708286B2, “Ingenol-3-acylates III and ingenol-3-carbamates” (LEO Laboratories Limited, priority 2010, dated 2017):
Where two headings read alike, the source gives them in different places.

Key:
Format in all cases: cell-based
[1] = test system: PMN's (polymorphonuclear leukocytes); experiment: Neutrophil oxidative burst; conditions: normalized to 5×10^−7 M PEP0005
Procedure: PMN's (polymorphonuclear leukocytes) were isolated and purified from fresh buffy coats by sequential sedimentation, density centrifugation and lysis of contaminating erythrocytes. Buffy coats were incubated with 2% methocel for 30-45 min to differentially sediment red blood cells. The leukocyte-rich supernatant was transferred to lymphoprep tubes to remove mononuclear cells by density centrifugation (400×g, 30 min). The pellet was resuspended and any remaining erythrocytes lysed using 0.2% NaCl for 30 sec before restoring isotonicity by the addition of 1.2% NaCl. This step was repeated until the cell pellet appears relatively free of red blood cells. Cells were resuspended in DPBS (Dulbecco's Phosphate Buffered Saline) (w.o. Ca^2+, Mg^2+) and the concentration adjusted to 1.4×10^6 cells/ml in HBSS (Hanks Balanced Salt solution) (w Ca^2+, Mg^2±) containing 0.1% BSA (Bovine Serum Albumin) and 5 mM glucose just prior to assay initiation. Titrated reference and test compounds were pre-mixed with HE (Hydroethidine) (10 μM final assay concentration) before addition to 96-well plates containing 2.5×10^5 cells. Following 40 min incubation at RT, changes in the respiratory burst was estimated by measuring fluorescence at 579 nm (excitation: 485 nm) using an Envision plate reader.
Test compound titration curves were fitted to a four-parameter sigmoidal curve after normalizing the effect of the test compound to the effect of the positive control (5×10^−7 M PEP0005). Rel EC50 denotes the concentration of test compound producing an effect that is midway between the fitted top and bottom. Abs EC50 is the concentration of test compound that provokes a response corresponding to 50% of the maximal effect associated with the positive control (5×10^−7 M PEP0005).

[2] = test system: Primary human epidermal keratinocytes, HeKa; experiment: HeKa cytokine release (IL-8); conditions: read-out: HeKa cytokine release (IL-8) Rel EC50 range
Procedure: Primary human epidermal keratinocytes, HeKa, were seeded (10.000 cells/well) in 96-well plates the day before the assay. Test compounds were diluted in DMSO (dimethyl sulfoxide) and further diluted in assay medium and pipetted into wells of 96 well-plates containing HeKa cells. The plates were incubated for 6 h at 37° C. in humidified air with 5% CO2. Plates were centrifuged briefly to spin down cells at 4° C., the supernatant was removed and analysed by Meso Scale Discovery (MSD) 4-spot cytokine assay (Pro-inflammatory II Ultra Sensitive kit, MSD, MD, USA). The MSD assay employs a sandwich immunoassay format where capture antibodies are coated in a patterned array on the bottom of the wells of a 4-Spot-Multi-MSD plate. Standard samples were incubated in the MULTI-SPOT plates as well, and the cytokine (IL-8) binds to its corresponding capture antibody spot. The cytokine level was quantitated on a SECTOR™ Imager using a cytokine-specific Detection Antibody labelled with MSD SULFO-TAG™ reagent.
Test compound titration curves were fitted to a four-parameter sigmoidal curve after normalizing the effect of the test compound to the effect of the positive control (1.5×10^−7 M PEP0005). Rel EC50 denotes the concentration of test compound producing an effect that is midway between the fitted top and bottom.

HeLa cells = experiment: Necrosis assay; conditions: Homo sapiens, HeLa, 0.5 h, read-out: HeLa necrosis EC50 range
Procedure: HeLa cells (ATCC CCL-002) were grown in minimal essential medium (Invitrogen catalog no. 42360) containing 10% fetal bovine serum, 100 IU/ml penicillin and 100 μg/ml streptomycin. 4,000-6,000 cells were seeded into 96-well black ViewPlates-plates, clear bottom, (Perkin Elmer) in 100 μl medium and incubated overnight. Compounds were dissolved and pre-diluted in DMSO in 96-well polypropylene plates (Greiner) in a concentration range of 15 μM to 600 μM. At the time of the experiment cell plates were placed on heating blocks at 37° C., medium was removed and 40 μl fresh, pre-warmed medium was added per well. Cells were incubated for 15 min before addition of compounds. In parallel, 3 μl of compounds were diluted with 197 μl growth medium on a Tecan freedom-EVO pipetting station using 250 μl/s pipetting speed, in order to ensure effective mixing of the highly concentrated compound solutions with the aqueous phase. These pre-dilution plates were then equilibrated on heating blocks at 37° C. for 10 min. 80 μl pre-diluted compound were transferred manually to the corresponding wells containing HeLa cells yielding compound concentrations of 10 μM to 400 μM. Control conditions were 1% DMSO in growth medium (100% viability) and 400 μM ingenol mebutate in growth medium (0% viability). Plates were incubated on the heating blocks at 37° C. for 30 min. At the end of the incubation 10 μl PrestoBlue reagent (Invitrogen) were added to each well, plates were sealed with black seal, followed by incubation at 37° C. for 10 min with gentle shaking (150 rpm). Subsequently, plates were placed at room temperature for 20-30 min. Plates were read immediately after on an Envision Fluorescence reader (Perkin Elmer) with excitation at 535 nm and emission at 630 nm. Test compound titration curves were fitted to a four-parameter sigmoidal curve after normalizing the effect of the test compound to the effect of the positive control (4 10^−4 M PEP0005/ingenol mebutate). AbsEC50 denotes the concentration of test compound producing 50% effect.

[3] = Leukocyte, 40 min, read-out: Neutrophil oxidative burst Rel EC50 range, PMN from buffy coats, 40 min at RT, hydroethidine fluorescence

Compound | EC50 ([1]; read-out: Neutrophil oxidative burst Rel EC50 range, PMN from buffy coats, 40 min at RT, hydroethidine fluorescence) | EC50 ([2]; HeKa cells, 6 h at 37° C., IL-8 by MSD assay, normalized to 1.5×10^−7 M PEP0005) | EC50 (HeLa cells) | EC50 [1, 3] | EC50 ([2]; Homo sapiens, HEKa, 6 h)
CC1=C[C@]23C(=O)[C@@H](C=C(CO)[C@@H](O)[C@]2(O)[C@H]1OC(=O)N1CCCC1C(F)(F)F)[C@H]1[C@@H](C[C@H]3C)C1(C)C (single isomer, unassigned; isomer b) [Compound 741, Ingenol 3-(2-trifluoromethyl-pyrrolidine-1-carboxylate) (ISOMER B)] | 20 to 100 nM | 20 to 100 nM | > 350000 nM | – | –
CC1=C[C@]23C(=O)[C@@H](C=C(CO)[C@@H](O)[C@]2(O)[C@H]1OC(=O)c1c(-c2c(F)cccc2Cl)noc1C)[C@H]1[C@@H](C[C@H]3C)C1(C)C [Compound 501, Ingenol 3-(5-methyl-3-(2-chloro-6-fluoro-phenyl)-isoxazole-4-carboxylate)] | – | – | < 150000 nM | 20 to 100 nM | < 20 nM
CC1=C[C@]23C(=O)[C@@H](C=C(CO)[C@@H](O)[C@]2(O)[C@H]1OC(=O)c1c(-c2ccccc2)noc1C)[C@H]1[C@@H](C[C@H]3C)C1(C)C [Compound 502, Ingenol 3-(5-methyl-3-phenyl-isoxazole-4-carboxylate)] | – | – | < 150000 nM | < 20 nM | < 20 nM
CC1=C[C@]23C(=O)[C@@H](C=C(CO)[C@@H](O)[C@]2(O)[C@H]1OC(=O)c1ccnn1-c1ccccc1)[C@H]1[C@@H](C[C@H]3C)C1(C)C [Compound 505, Ingenol 3-(2-phenylpyrazole-3-carboxylate)] | – | – | < 150000 nM | < 20 nM | < 20 nM
CC1=C[C@]23C(=O)[C@@H](C=C(CO)[C@@H](O)[C@]2(O)[C@H]1OC(=O)c1nn(C)c2ccccc12)[C@H]1[C@@H](C[C@H]3C)C1(C)C [Compound 506, Ingenol 3-(1-methylindazole-3-carboxylate)] | – | – | < 150000 nM | < 20 nM | < 20 nM
CCc1noc(C)c1C(=O)O[C@H]1C(C)=C[C@]23C(=O)[C@@H](C=C(CO)[C@@H](O)[C@]12O)[C@H]1[C@@H](C[C@H]3C)C1(C)C [Compound 507, Ingenol 3-(3-ethyl-5-methyl-isoxazole-4-carboxylate)] | – | – | 150000 to 350000 nM | < 20 nM | < 20 nM
CC1=C[C@]23C(=O)[C@@H](C=C(CO)[C@@H](O)[C@]2(O)[C@H]1OC(=O)c1c(C)noc1C)[C@H]1[C@@H](C[C@H]3C)C1(C)C [Compound 508, Ingenol 3-(3-methyl-5-methyl-isoxazole-4-carboxylate)] | – | – | 150000 to 350000 nM | < 20 nM | < 20 nM
CC1=C[C@]23C(=O)[C@@H](C=C(CO)[C@@H](O)[C@]2(O)[C@H]1OC(=O)c1sccc1-c1ccccc1)[C@H]1[C@@H](C[C@H]3C)C1(C)C [Compound 510, Ingenol 3-(3-phenylthiophene-2-carboxylate)] | – | – | < 150000 nM | 20 to 100 nM | < 20 nM
CC1=C[C@]23C(=O)[C@@H](C=C(CO)[C@@H](O)[C@]2(O)[C@H]1OC(=O)c1cnnc2ccccc12)[C@H]1[C@@H](C[C@H]3C)C1(C)C [Compound 514, Ingenol 3-(cinnoline-4-carboxylate)] | – | – | < 150000 nM | > 100 nM | > 100 nM
CC1=C[C@]23C(=O)[C@@H](C=C(CO)[C@@H](O)[C@]2(O)[C@H]1OC(=O)c1ncoc1-c1ccccc1)[C@H]1[C@@H](C[C@H]3C)C1(C)C [Compound 516, Ingenol 3-(5-phenyloxazole-4-carboxylate)] | – | – | < 150000 nM | < 20 nM | 20 to 100 nM
CC1=C[C@]23C(=O)[C@@H](C=C(CO)[C@@H](O)[C@]2(O)[C@H]1OC(=O)c1noc2ccccc12)[C@H]1[C@@H](C[C@H]3C)C1(C)C [Compound 517, Ingenol 3-(1,2-benzoxazole-3-carboxylate)] | – | – | < 150000 nM | 20 to 100 nM | > 100 nM
CC1=C[C@]23C(=O)[C@@H](C=C(CO)[C@@H](O)[C@]2(O)[C@H]1OC(=O)c1c(C(C)C)noc1C)[C@H]1[C@@H](C[C@H]3C)C1(C)C [Compound 518, Ingenol 3-(3-isopropyl-5-methyl-isoxazole-4-carboxylate)] | – | – | < 150000 nM | < 20 nM | < 20 nM
CC1=C[C@]23C(=O)[C@@H](C=C(CO)[C@@H](O)[C@]2(O)[C@H]1OC(=O)N1CCCCC1)[C@H]1[C@@H](C[C@H]3C)C1(C)C [Compound 707, Ingenol 3-(piperidine-1-carboxylate)] | – | – | – | < 20 nM | 20 to 100 nM
CC1=C[C@]23C(=O)[C@@H](C=C(CO)[C@@H](O)[C@]2(O)[C@H]1OC(=O)N(C)Cc1ccccc1)[C@H]1[C@@H](C[C@H]3C)C1(C)C [Compound 708, Ingenol 3-(N-benzyl-N-methyl-carbamate)] | – | – | – | 20 to 100 nM | < 20 nM
CC1=C[C@]23C(=O)[C@@H](C=C(CO)[C@@H](O)[C@]2(O)[C@H]1OC(=O)NC1CCCCC1)[C@H]1[C@@H](C[C@H]3C)C1(C)C [Compound 710, Ingenol 3-(N-cyclohexyl-carbamate)] | – | – | – | < 20 nM | 20 to 100 nM
CC1=C[C@]23C(=O)[C@@H](C=C(CO)[C@@H](O)[C@]2(O)[C@H]1OC(=O)Nc1ccccc1)[C@H]1[C@@H](C[C@H]3C)C1(C)C [Compound 711, Ingenol 3-(N-phenyl-carbamate)] | – | – | – | 20 to 100 nM | < 20 nM
CC1=C[C@]23C(=O)[C@@H](C=C(CO)[C@@H](O)[C@]2(O)[C@H]1OC(=O)NC1CCc2ccccc21)[C@H]1[C@@H](C[C@H]3C)C1(C)C (some centres unmarked) [Compound 712, Ingenol 3-(N-(indan-1-yl)-carbamate)] | – | – | – | 20 to 100 nM | 20 to 100 nM
CC1=C[C@]23C(=O)[C@@H](C=C(CO)[C@@H](O)[C@]2(O)[C@H]1OC(=O)N(C)c1ccccn1)[C@H]1[C@@H](C[C@H]3C)C1(C)C [Compound 724, Ingenol 3-(N-methyl-N-(2-pyridyl)-carbamate)] | – | – | > 350000 nM | – | 20 to 100 nM
CC1=C[C@]23C(=O)[C@@H](C=C(CO)[C@@H](O)[C@]2(O)[C@H]1OC(=O)N1CCCCCC1)[C@H]1[C@@H](C[C@H]3C)C1(C)C [Compound 728, Ingenol 3-(azepane-1-carboxylate)] | – | – | – | 20 to 100 nM | 20 to 100 nM
